Consider ten molecules from paper PMC5100903, “Tissue Kallikrein Inhibitors Based on the Sunflower Trypsin Inhibitor Scaffold – A Potential Therapeutic Intervention for Skin Diseases” (PLoS ONE, 2016).

Where two headings read alike, the source gives them in different places. Positions of bridges follow the written chain, without caps; N, C: chain ends. Residues, ends and D or L forms follow the SMILES beside them.

For series [1], the target named is T1, KLK5 (Homo sapiens, UniProt Q9Y337).
T1 construct: purchased Novoprotein
T1 sequence (Q9Y337 23-293): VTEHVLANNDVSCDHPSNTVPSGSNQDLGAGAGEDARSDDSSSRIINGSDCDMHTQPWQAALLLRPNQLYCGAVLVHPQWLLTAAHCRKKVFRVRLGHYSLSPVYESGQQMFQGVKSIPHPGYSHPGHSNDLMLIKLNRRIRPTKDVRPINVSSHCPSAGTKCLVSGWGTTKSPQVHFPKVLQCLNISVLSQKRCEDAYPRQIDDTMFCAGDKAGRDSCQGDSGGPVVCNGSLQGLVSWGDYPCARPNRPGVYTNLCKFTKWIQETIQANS
Description: biochemical. Here is the method:
(§1) All assays were performed on 96-well microplates and the change in relative fluorescence unit (RFU) was measured by fluorescence spectrometer (BMG FLUOstar OPTIMA). The excitation/emission wavelength was 360/460 nm for the substrate Boc-VPR-AMC (Bachem AG, Hauptstrasse, Switzerland) and MeOSuc-AAPV-AMC (Bachem AG, Hauptstrasse, Switzerland) and 485/520 nm for BODIPY_FL casein (Invitrogen, Carlsbad, US). Stock solution of Boc-VPR-AMC was prepared by dissolving the solid in dimethyl sulfoxide to 100 mM and 10 mM for MeOSuc-AAPV. For BODIPY_FL casein, it was reconstituted to 1 mg/mL in 1xPBS. […] The % of inhibition was calculated by the following equation: % of Inhibition=(1−(Sample RFU − Min RFU)/(Max RFU − Min RFU)) X100
(§2) Each inhibition curves were done in triplicates with a minimum of five concentration points fitted. Fitting of each curve was done using SigmaPlot with the Four Parameter Logistic Function and the IC50 calculated. […] All tested compounds were reconstituted to stock solution in water.
The diluent for all the tested compounds, protein and substrate was 1xPBS. Serially diluted ligands were mixed with diluted recombinant KLK5 (10 nM f/c). The ligand-protein mixtures were incubated on ice for one hour and 19.5 μL was pipetted into a well of a 96-well microplate in triplicates. To start the reaction, 100 μL of the diluted (41.6 μM f/c) Boc-VPR-AMC substrate solution (contained 0.05% v/v Brij35) was added. The plate was incubated at 37°C and the RFU reading was taken 15 minutes after.
There are two previously reported Km values for KLK5 and its substrate Boc-VPR-AMC which allowed the IC50 to Ki conversion. Ki values were calculated according to the Cheng-Prusoff equation Ki= IC50/1+[S]/Km for single site competitive binding.

Another series concerns the target T2, KLK7 (Homo sapiens, UniProt P49862).
T2 construct: purchased R&D
Description: biochemical. As to the method:
as §1, §2
Recombinant KLK7, KLK8 and KLK14 (>95% purity by SDS-PAGE, endotoxin <0.1 ng/μg, R&D, Minneapolis, U.S.) stocks were diluted with 1xPBS to a concentration of 120 nM. KLK7 and KLK14 were activated by addition of 1 mM f/c CaCl2 (Sigma, Dorset, U.K.), 0.05% v/v Brij35 (Sigma, Dorset, U.K.), 20 nM f/c thermolysin (Sigma, Dorset, U.K.) and incubated at 37°C for 1 hour. The reaction was stopped by addition of ethylenediaminetetraacetic acid (EDTA, 50 mM f/c). KLK8 was activated by addition of 11 nM f/c lysyl endopeptidase (Santa Cruz Biotechnology, Dallas, U.S.) and incubation at 37°C for 0.5 hour. […] The RFU value reached by the thermolysin control was used as the minimum RFU for calculating the % of inhibition for KLK7.
The diluent for all the tested compounds, protein and substrate (except KLK7, which was done with 10 mM Tris pH 7.8) was 1xPBS pH 8.0–8.9. The serially diluted ligands were mixed with diluted bovine trypsin (Sigma, Dorset, U.K.) or activated KLK14, or KLK5, or activated KLK8 or matriptase (catalytic domain only, >90% purity by SDS-PAGE, endotoxin <0.1 ng/μg, R&D, Minneapolis, U.S.) or activated KLK7 or human neutrophil elastase (purified from human plasma, >95% purity by SDS-PAGE, Abcam, Cambridge, U.K.) or porcine pancreatic elastase 1 (Sigma, Dorset, U.K.) or human plasma kallikrein or human plasma plasmin (purified from human plasma, ≥95% purity by SDS-PAGE, BioVision, Milpitas, U.S.). 20μL of the ligand-protein mixture was pipetted to a well of a 96-well microplate in triplicates. The reaction was started by addition of 90–100 μL of the diluted substrate solution (contained 0.05% v/v Brij35) and the plate incubated at 25°C but 37°C for KLK7. RFU reading for each well was taken 6 minutes (trypsin) or 15 minutes (KLK14, KLK5, KLK8, matriptase, human neutrophil elastase, porcine pancreatic elastase 1, plasma kallikrein and plasmin) or 20 hours (KLK7) after substrate addition.

Series [2] concerns the target T1, KLK5. Description: biochemical. The format is binding. As to the method:
ITC experiments were performed on a MicroCal iTC200 calorimeter (GE Healthcare, Uppsala, Sweden) at 298.15 K with a stirring speed of 750 revolutions per minute. Concentrated (450 μM) ligand solutions were injected into protein (KLK5) solution (20 μM, 280 μL sample volume) in the sample cell. Injection volumes were 2 μL for I10H and Analogue 1 and 1 μL for Analogue 2 and 6 with a spacing of 120 seconds between each injection. Concentrations of ligands were determined by dried weight and they were reconstituted to 10 mM stock in H2O. Concentration of KLK5 was determined by UV280 calculated with an extinction coefficient of 38680 and molecular weight of 32KDa (including weight of glycosylation). The protein solution were buffer exchanged using spin column to 1xPBS (137 mM NaCl, 2.7 mM KCl, 4.3 mM Na2HPO4, 1.47 mM KH2PO4 pH 8.0) or 20 mM MES buffer (with 150 mM NaCl, pH 5.5). Ligand stocks were diluted in those buffers (4.5 μL + 95.5 μL buffer), and then equal v/v % of H2O was added to the protein solution after buffer exchange to ensure matching buffer contents. Heat of dilution was undetectable in control experiments. Data were analyzed using OriginLab version 7.0.

The target of series [3] is T1, KLK5. Put plainly: KLK5 inhibition, fluorogenic Boc-VPR-AMC assay (S1 Table conditions). In kind it is biochemical. The note with it: read-out: BOC-VPR-AMC IC50 (N = 3); KLK5 10 nM, Boc-VPR-AMC 41.6 μM, 1xPBS pH 8.0, 15 min on ice preincubation, read at 15 min, 25°C. As to the method:
All assays were performed on 96-well microplates and the change in relative fluorescence unit (RFU) was measured by fluorescence spectrometer (BMG FLUOstar OPTIMA). […] Stock solution of Boc-VPR-AMC was prepared by dissolving the solid in dimethyl sulfoxide to 100 mM and 10 mM for MeOSuc-AAPV. For BODIPY_FL casein, it was reconstituted to 1 mg/mL in 1xPBS. […] The % of inhibition was calculated by the following equation: % of Inhibition=(1−(Sample RFU − Min RFU)/(Max RFU − Min RFU)) X100
as §2
The diluent for all the tested compounds, protein and substrate was 1xPBS pH 8.0. Zinc sulfate and p-aminobenzamidine were purchased from Sigma (Dorset, U.K.). […] The ligand-protein mixtures were incubated on ice for 15 minutes and 20 μL was transferred to a well of a 96-well microplate (ThermoScientific, Waltham, U.S.) in triplicate. […] Change in RFU was measured 15 minutes after substrate addition at 25°C.

For series [4] the following is noted: amide bond, 42-membered ring, MESNa (NCL via N-S acyl transfer), then NH4HCO3 oxidation, 0.1 M Na phosphate pH 5.8, 55.0 °C, 2 steps.

T2 sequence (P49862 30-253): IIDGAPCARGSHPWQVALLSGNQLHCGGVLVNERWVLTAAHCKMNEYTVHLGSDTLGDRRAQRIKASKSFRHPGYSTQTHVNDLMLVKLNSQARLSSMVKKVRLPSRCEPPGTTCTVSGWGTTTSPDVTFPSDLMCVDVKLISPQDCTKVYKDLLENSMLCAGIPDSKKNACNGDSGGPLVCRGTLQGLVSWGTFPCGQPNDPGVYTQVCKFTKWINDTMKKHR

In general, IC50 refers to the point on the concentration scale where inhibition reaches its midpoint. As usually defined, the Ki is the equilibrium dissociation constant of an inhibitor or competing ligand from its target. Read a low Ki as a stronger hold on the target. The Kd is a measure of binding affinity in units of concentration. A higher Kd goes with lower affinity. With `CC[C@H](C)[C@@H]1NC(=O)[C@H](CO)NC(=O)[C@H](CCCNC(=N)N)NC(=O)[C@H]([C@@H](C)O)NC(=O)[C@@H]2CSSC[C@H](NC(=O)[C@H](Cc3c[nH]cn3)NC(=O)[C@@H]3CCCN3C(=O)[C@@H]3CCCN3C1=O)C(=O)N[C@@H](Cc1ccccc1)C(=O)N1CCC[C@H]1C(=O)N[C@@H](CC(=O)O)C(=O)NCC(=O)N[C@@H](CCCNC(=N)N)C(=O)N2` [Analogue 1] (cyclo(CFPDGRCTRSIPPH); disulfide 1-7), at KLK5 [1], half-maximal inhibition (IC50) was put at 65 ± 10 nM and the Ki was found to be 60 nM. The same molecule registered an IC50 on KLK7 of 2290 ± 68 nM. Moreover, the affinity at KLK5 [2], expressed as Kd, was 115 nM. For the same molecule, at KLK5 [2] (ITC, 1xPBS pH 8.0, 25°C), the “Stoichiometry (N)” value is given as 1.03±0.01, the ΔH is 1.216 ± 0.021 kcal/mol and the ΔS stood at 35.8 cal mol^-1 kelvin^-1. Moreover, the ΔG on KLK5 [2] (ITC, 25°C) is -9.457 kcal/mol. The molecule further registered a Ka on KLK5 [2] (ITC, 25°C (Table S2, unit not given)) of 8.7E6±2.7E6.

As for `O=S(=O)([O-])[O-].[Zn+2]` [Zinc Sulfate], the half-inhibitory concentration (IC50) on KLK5 [3] was determined as 2940 nM.

`N=C(N)c1ccc(N)cc1` [p-Aminobenzamidine]: the IC50 on KLK5 [3] amounted to 60400 nM.

As to GRCTKSIPPHCFPD, in series [4] (0.6 mM), the ring closure, yield after HPLC was 19%.

Molecule GRCTKSIPPHCWPD gave a ring closure, yield after HPLC in series [4] (0.59 mM) of 25%.

GRCTKSIPPHCYPD: in series [4] (0.6 mM), the ring closure, yield after HPLC was 19%.

Regarding GRCTKSKPPHCFPD, the ring closure, yield after HPLC in series [4] (0.6 mM) came out at 16%.

The molecule GRCTRSIPPHCFPD came in with a ring closure, yield after HPLC in series [4] (0.59 mM) of 24%.

In series [4] (0.58 mM), GRCTRSIPPHCWPD had a ring closure, yield after HPLC of 24%.

Molecule NRCTKSIPPHCFPD showed a ring closure, yield after HPLC in series [4] (0.58 mM) of 25%.
